Experimental findings from patent publication US20240100116A1, “EUCOMMIA ULMOIDES OLIV. LEAF EXTRACT CAPABLE OF PROTECTING HEALTH OF KIDNEY FUNCTION, AND PREPARATION AND DETECTION METHODS THEREOF” (Chenland Nutritionals Inc., priority 2023, published 2024) are described below.

The test addresses xanthine oxidase (Homo sapiens, UniProt P47989). In words: Xanthine oxidase (XOD) inhibition, uric acid production read at OD290 nm. It counts as biochemical. As to conditions: read-out: Inhibition rate (%). Here is the method:
Xanthine oxidase catalyzes a xanthine substrate to produce uric acid and superoxide anion, and uric acid has a characteristic absorption peak under 290 nm UV conditions. By measuring the change curve of absorbance value within a certain time, the slope of this curve is the production rate of the uric acid, to measure the change of the activity of xanthine oxidase, so as to judge the uric acid lowering ability of the sample.
92.4 μL of xanthine oxidase mother solution (5 U/770 μL) is drawn in a centrifuge tube, and diluted with 11.9076 mL of PBS to obtain 0.05 U/mL xanthine oxidase working solution which shall be prepared for immediate use.
0.02284 g of xanthine is weighed in a beaker; 1.2 mL of 1 mol/L NaOH solution is added; ultrasonic treatment is conducted for 20 min; and the volume is fixed to 100 mL with the PBS to obtain 1.5 mmol/L xanthine working solution.
Eucommia ulmoides Oliv. leaf extract solutions: 0.50 g of corresponding Eucommia ulmoides Oliv. leaf extract sample in embodiment 5 is weighed; the volume is fixed to 50 mL with the PBS; the solution is thoroughly mixed well to prepare 10.0 mg/mL mother solution; and the mother solution is diluted with the PBS to different multiples to obtain different concentrations of Eucommia ulmoides Oliv. solutions.
2.1 A proper quantity of centrifugal tubes are taken and numbered as OD1, OD2, OD3 and OD4 respectively. Reagents are added to each tube according to the combinations of Table 1.
The concentrations are plotted in horizontal coordinates and the inhibition rates are plotted in vertical coordinates to calculate the concentration IC50 with half inhibition rate.

Chain of xanthine oxidase (P47989 whole entry, species assumed): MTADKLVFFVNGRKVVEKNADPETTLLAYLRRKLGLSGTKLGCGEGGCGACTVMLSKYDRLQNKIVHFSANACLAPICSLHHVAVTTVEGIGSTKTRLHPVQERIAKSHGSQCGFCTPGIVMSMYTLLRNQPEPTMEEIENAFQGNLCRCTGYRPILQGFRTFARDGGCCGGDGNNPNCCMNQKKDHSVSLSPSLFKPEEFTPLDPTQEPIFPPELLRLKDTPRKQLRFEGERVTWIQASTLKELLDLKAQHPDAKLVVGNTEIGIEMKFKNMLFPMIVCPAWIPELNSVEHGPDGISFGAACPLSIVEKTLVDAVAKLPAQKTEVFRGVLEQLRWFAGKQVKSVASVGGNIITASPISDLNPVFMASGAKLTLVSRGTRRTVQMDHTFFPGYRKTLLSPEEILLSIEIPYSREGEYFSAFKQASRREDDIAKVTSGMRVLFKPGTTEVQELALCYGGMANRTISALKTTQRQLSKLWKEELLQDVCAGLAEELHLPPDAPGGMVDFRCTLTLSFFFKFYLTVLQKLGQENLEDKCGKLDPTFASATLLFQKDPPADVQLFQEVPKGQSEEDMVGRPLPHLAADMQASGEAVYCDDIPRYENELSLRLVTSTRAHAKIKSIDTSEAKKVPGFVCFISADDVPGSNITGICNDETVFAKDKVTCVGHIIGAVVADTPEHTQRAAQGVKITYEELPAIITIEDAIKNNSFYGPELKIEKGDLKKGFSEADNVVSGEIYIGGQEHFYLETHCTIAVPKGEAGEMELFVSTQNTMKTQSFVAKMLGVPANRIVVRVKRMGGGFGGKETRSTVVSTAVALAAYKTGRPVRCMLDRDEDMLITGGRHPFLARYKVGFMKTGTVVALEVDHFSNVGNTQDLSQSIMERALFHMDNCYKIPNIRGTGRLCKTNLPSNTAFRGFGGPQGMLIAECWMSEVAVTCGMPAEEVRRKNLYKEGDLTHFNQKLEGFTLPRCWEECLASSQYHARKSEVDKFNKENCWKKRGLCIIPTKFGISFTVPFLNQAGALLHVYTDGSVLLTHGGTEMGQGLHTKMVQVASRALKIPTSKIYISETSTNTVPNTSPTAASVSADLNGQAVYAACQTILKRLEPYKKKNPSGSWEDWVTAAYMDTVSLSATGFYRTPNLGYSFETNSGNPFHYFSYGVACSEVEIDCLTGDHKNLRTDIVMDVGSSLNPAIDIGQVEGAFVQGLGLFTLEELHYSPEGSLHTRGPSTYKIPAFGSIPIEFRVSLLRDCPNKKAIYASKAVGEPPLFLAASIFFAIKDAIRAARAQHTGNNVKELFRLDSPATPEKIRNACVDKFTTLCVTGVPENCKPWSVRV

Take `Oc1ncnc2[nH]ncc12` [Allopurinol, allopurinol]: the inhibition at 0.05 µg/mL (0.05 μg/ml) was 34.1%. Also, where the note is “1 μg/ml”, the inhibition at 1 µg/mL was determined as 44.9%. Moreover, the inhibition at 5 µg/mL (5 μg/ml) stood at 59.4%. Besides, the inhibition at 10 µg/mL (10 μg/ml) came to 74%. For the same molecule, the inhibition at 15 µg/mL (15 μg/ml) turned out to be 81.2%. Also, for the setting “20 μg/ml”, the inhibition at 20 µg/mL was found to be 87.2%. Moreover, where the note is “25 μg/ml”, the inhibition at 25 µg/mL worked out at 93.3%.

One may read the inhibition as the drop in the measured response relative to a control, in per cent.
